Experiments:
[1] = target: T1, p27-KID (Homo sapiens, UniProt P46527); experiment: NMR fragment screening and 2D 1H-15N HSQC chemical shift perturbation mapping; type: binding; design: key to Binding Group (site of chemical shift perturbations in p27-KID): Molecules in Group 1 bound to a localized region, F87YY89; molecules in Group 2 bound to this region as well as two others containing two W residues (W60 and W76); settings: 2D 1H-15N HSQC, 100 μM 15N-p27-KID
T1 construct: 6xHis (N, cleaved yes); made in house; host or cells: E. coli (pET28a)
Description: We used one-dimensional (1D) ^1H WaterLOGSY[35] and STD[36] […] Fragment molecules were selected from either a commercial library (1,100 compounds from the Ro3 collection, Maybridge/Thermo Fisher Scientific) or an in-house library of 1,222 compounds based on the “Rule of Three”[40] and other criteria (see Methods). […] Binding sites for these compounds were identified by titration into ^15N-p27-KID and analysis of two-dimensional (2D) ^1H-^15N HSQC spectra. […] We termed these molecules Groups 1 and 2, respectively (Fig. 1b,c); representative ^1H CSP histograms are shown in Fig. 1d,e, and ^15N CSPs are presented in Suppl. Fig. 2. Data for all other small molecules are shown in Suppl. Fig. 3.
Screening and validation NMR experiments were performed at 298 K (25 °C) using either a Varian Inova 600 MHz spectrometer equipped with a triple resonance (HCN) room temperature gradient probe or a Bruker Avance 600 MHz spectrometer equipped with TCI cryogenic gradient probe and a SampleJet sample changer. Fragment molecules were initially analyzed as pools of five molecules dissolved at 10 mM each in DMSO-D6. […] For initial fragment screening experiments, one-dimensional (1D) ^1H- and WaterLOGSY[35] NMR spectra were recorded for compound pools without and with protein. […] DMSO-D6 was added to maintain a constant concentration (2% vol/vol). […] Tryptophan and tyrosine, respectively, were titrated into ^15N-p27-KID (100 μM) up to 3 mM. Three-dimensional (3D) backbone triple-resonance experiments to establish resonance assignments for the p27 constructs were performed using the Bruker Avance 600 MHz spectrometer. […] Fig. 12b,c and d,e, respectively. 2D ^1H-^15N TROSY-HSQC NMR experiments with ^2H/^13C/^15N-p27-D2/Cdk2/cyclin A and SJ403 have been recorded at 308 K (35 °C). 2D ^1H-^15N HSQC experiments of representative fragment hits (1 mM of SJ319843, group 1 and SJ403, group 2, respectively) with ^15N-p21-KID (20 μM) were recorded at 298 K using a Bruker Avance 600 MHz spectrometer. NMR spectra were processed using Bruker Topspin software and analyzed using computer-aided resonance assignment (CARA) software.
Chemical shift perturbations are generally quantified as combined ^1H and ^15N chemical shift values. […] Thus, the use of a combined chemical shift values would mask the effects of compound binding. […] Thus, the assessment of statistical significance was based upon whether a particular CSP value was larger than, i) the experimental spectral resolution in the given dimension (^1H or ^15N) and ii) the quantity, Δδave + 2σ, for that dimension.

[2] = target: T1, p27-KID; experiment: NMR 2D 1H-15N in-phase HSQC titration, binding affinity for p27:small molecule interactions; settings: sixteen-point titration, 100 μM 15N-p27-KID, inhibitor 0-3 mM
Procedure: 1D and 2D NMR analysis of these molecules led to the identification of 15 additional p27-D2-binding compounds (six with Group 1-like binding features and nine with Group 2-like features; Suppl. Fig. 3b and Suppl. Table 1b).
Sixteen point titrations of representative fragment hits from Group 1 and Group 2 (SJ572710 and SJ572403, respectively) into ^15N-p27-KID (100 μM) were recorded using an adopted “in-phase” 2D ^1H-^15N HISQC with proton decoupling during ^15N chemical shift labeling achieved with a WALTZ16 composite pulse with an amplitude of 7.1 kHz[54][55]. All experiments were collected at a Bruker Avance 800 MHz spectrometer equipped with TCI cryogenic gradient probe. The following molar ratios of ^15N-p27-KID (100 μM) to inhibitor were used: 1:0, 1:0.1, 1:1.5, 1:3, 1:4.5, 1:6, 1:7.5, 1:9, 1:10.5, 1:12, 1:15, 1:18, 1:21, 1:24, 1:27 and 1:30. Each spectrum was recorded with 256 (t1,max = 31.0 ms) and 1024 (t2,max = 106.5 ms) complex points in the ^15N and ^1H dimensions, respectively, with eight transients collected per point. The spectral resolution of the ^1H and ^15N dimensions was 2.4 and 1.7 Hz, respectively. […] The data was processed using the NMRPipe package[56] and analyzed using in-house scripts written in Python using the Scipy computing libraries and Mathematica (Wolfram Research). […]

[3] = test system: p27-KID mutants; experiment: 2D NMR binding mapping with p27-KID mutants; design: species or system human
Description: (§1) (Fig. 7a–c); these interaction sites are all within the Cdk2-binding D2 sub-domain. […] In fact, sub-domain D2 contains eight of the nine aromatic amino acids found within p27; a ninth, F33, is found within sub-domain D1 but […] to small molecules. Group 1 molecules caused the largest CSPs for residues F87, Y88 and Y89 within sub-region D2.3 and Group 2 molecules perturbed resonances for these residues as well as for residues W60, N61 (sub-region D2.1) and E75, W76 and Q77 (sub-region D2.2).
(§2) The p27 constructs were expressed in E. Coli with an N-terminal 6xHis affinity tag after sub-cloning into pET28a (Novagen) using established procedures. […]
(§3) Screening and validation NMR experiments were performed at 298 K (25 °C) using either a Varian Inova 600 MHz spectrometer equipped with a triple resonance (HCN) room temperature gradient probe or a Bruker Avance 600 MHz spectrometer equipped with TCI cryogenic gradient probe and a SampleJet sample changer. Fragment molecules were initially analyzed as pools of five molecules dissolved at 10 mM each in DMSO-D6. […] NMR spectra were recorded for compound pools without and with protein. […] 2D ^1H-^15N TROSY-HSQC NMR experiments with ^2H/^13C/^15N-p27-D2/Cdk2/cyclin A and SJ403 have been recorded at 308 K (35 °C). […] NMR spectra were processed using Bruker Topspin software and analyzed using computer-aided resonance assignment (CARA) software.

[4] = target: T2, p27-KID mutants (Homo sapiens, UniProt P46527, Y88A); experiment: 2D NMR binding mapping with p27-KID mutants
T2 construct: 6xHis (N, cleaved yes); made in house; host or cells: E. coli (pET28a)
Description: as §1, §2, §3

T1 sequence (P46527 22-105): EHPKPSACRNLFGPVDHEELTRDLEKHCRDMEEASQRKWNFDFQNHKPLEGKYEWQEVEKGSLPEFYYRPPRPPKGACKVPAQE
T2 sequence (P46527 22-105 Y88A): as the sequence (P46527 22-105) above, with Y67A counted along it

**Q.** Which “Binding Group (site of chemical shift perturbations in p27-KID)” value [1] does the source give for `CCn1c(C)c(C)n2c3c(=O)n(C)c(=O)n(C)c3nc12` [SJ403] here?
**A.** The value was “Group 2”.

**Q.** What about the Kd [2] of the same compound?
**A.** The Kd was 2200 ± 300 µM.

**Q.** And the “CSPs with doubly mutated p27-KID variants (W60A-W76A, W60F-W76F)” value [3]?
**A.** Its value is “only very weak CSPs within the F87YY89 aromatic cluster”.

**Q.** What about the “CSPs with Y88 to A p27-KID mutant” value [4] of the same compound?
**A.** Its value is “caused CSPs near the two W residues (W60 or W76) but not within the F87A88Y89 region”.

— article PMC4623604, “Discovery of Small Molecules that Inhibit the Disordered Protein, p27^Kip1” (Scientific Reports, 2015)
